Measured values from paper PMC11679033, “Assessing the Potential Synergistic/Antagonistic Effects of Citrinin and Cannabidiol on SH-SY5Y, HepG2, HEK293 Cell Lines, and Human Lymphocytes” (Toxins, 2024).
Marks after values point to notes of the source that are not given here.

Key:
[1] = MTS viability assay, HEK293; type: cell-based, human; conditions: human, HEK293 cells; HEK293, 24 h exposure, MTS; read-out: IC50 (cytotoxicity)
Procedure: (§1) Human neuroblastoma SH-SY5Y cells (ECACC 94030304), human hepatocyte carcinoma HepG2 (ECACC 85011430) and human embryonic kidney HEK293 (ECACC 85120602) used in the experiments were obtained from the European Collection of Authenticated Cell Cultures (ECACC) through Sigma-Aldrich (Steinheim, Germany). SH-SY5Y cells were grown in Dulbecco’s Modified Eagle’s Medium F12 containing 15% (v/v) fetal bovine serum (FBS), 2 mM glutamine, 1% (v/v) penicillin/streptomycin (PenStrep solution), and 1% (v/v) non-essential amino acids (NEAA solution). HEK293 and HepG2 cells were grown in EMEM medium (Sigma-Aldrich, Steinheim, Germany) supplemented with 10% (v/v) FBS, 2 mM glutamine, 1% (v/v) PenStrep and 1% (v/v) NEAA. All media and supplements were purchased from Sigma-Aldrich, Steinheim, Germany. Cells were cultured at 37 °C in a 5% CO2 atmosphere, the medium was changed every two days, and passage was carried out according to the manufacturer’s protocol.
(§2) MTS assay (CellTiter 96® AQueous One Solution Cell Proliferation Assay, Promega, Madison, WI, USA) was used to determine the viability of cells/cytotoxic properties of tested compounds by measuring cells’ mitochondrial succinate dehydrogenase activity. The procedure followed a previously described protocol. In brief, the cells were seeded in transparent 96-well plates at a density of 20,000 cells/well one day before the experiment and treated with tested compounds in concentrations: 0.01, 0.1, 0.5, 1, 2, 5, 10, 25, 50, 100 and 300 µM. Triton X-100 at a final concentration of 0.18% (v/v) (stock of 9% in water; Sigma-Aldrich, Steinheim, Germany) was used as a positive control. After 24 h, treatment with tested compounds and incubation with MTS reagent, the absorbance was read at 492 nm on an Infinite M200PRO (Tecan Group Ltd., Männedorf, Switzerland) plate reader. Data were taken from at least three independent experiments (each treatment performed in duplicate or triplicate) and expressed as percentages (mean ± standard error) of viable cells compared to control (untreated) cells. IC50 values were determined by a nonlinear fit equation predefined in Prism software 8 (GraphPad Software, San Diego, CA, USA).
(§3) The same method was used to evaluate a potential toxic synergistic effect on cells exposed to a combination of CBD and CIT at approximately LOAEL doses (lowest observed adverse effect level, 1 and 30 μM for SH-SY5Y and HepG2, and 2 and 0.05 μM for HEK293, respectively). There is no official recommendation for CBD oral use, but according to the available literature, we used a dose that corresponded to daily intake, which was 10 mg/kg/day (calculated on a person of 70 kg ~ 1 μM). These selected LOAEL concentrations were used for all other assays as well.

HEK293 cells = assay: MTS viability assay, HEK293; type: cell-based, human; conditions: HEK293, 24 h; for cell viability at LOAEL concentrations: CBD 2 μM, CIT 0.05 μM, alone or combined
Procedure: as §1, §2, §3

[2] = tested on: human peripheral blood lymphocytes; assay: Cytokinesis-Block Micronucleus Cytome (CBMN Cyt) Assay; conditions: 24 h, citrinin 30 µM, CBD 1 µM, bleomycin 1.25 µg/mL; for Distribution of BNMN Cells with 1 MN / Distribution of BNMN Cells with 2 MNi / Distribution of BNMN Cells with 3 MNi / Distribution of BNNB Cells with 1 NB / Distribution of BNNB Cells with 2 NBs / Micronuclei (MNi) and BNMN Cells: Total (BNNB)6000 / Micronuclei (MNi) and BNMN Cells: Total (MNi)6000 / Nuclear Buds (NBs) and BNNB Cells: Total (BNNB)6000 / Nuclear Buds (NBs) and BNNB Cells: Total (NBs)6000 / Nucleoplasmic Bridges (NPBs) and BNNPB Cells: Total (BNNPB)6000 / Nucleoplasmic Bridges (NPBs) and BNNPB Cells: Total (NPBs)6000: in 6000 BN cells; for Cell Death: Total (Apoptosis)6000 / Cell Death: Total (Necrosis)6000: in 6000 cells; for Micronuclei (MNi) and BNMN Cells: Mean (BNMN)1000 ± SD / Micronuclei (MNi) and BNMN Cells: Mean (MNi)1000 ± SD / Nuclear Buds (NBs) and BNNB Cells: Mean (BNNB)1000 ± SD / Nuclear Buds (NBs) and BNNB Cells: Mean (NBs)1000 ± SD / Nucleoplasmic Bridges (NPBs) and BNNPB Cells: Mean (BNNPB)1000 ± SD / Nucleoplasmic Bridges (NPBs) and BNNPB Cells: Mean (NPBs)1000 ± SD: per 1000 BN cells; for Cell Death: Mean (Apoptosis)1000 ± SD / Cell Death: Mean (Necrosis)1000 ± SD: per 1000 cells
Procedure: The experimental design included the establishment of lymphocyte cultures, and the 24 h treatments with the test compounds, performed according to the last OECD recommendations, given in the Test Guideline No. 487—In Vitro Mammalian Cell Micronucleus Test.
The selection of specific concentrations of test compounds adhered to the guidelines for in vitro genotoxicity testing using comet assay. […] Solutions used in testing were prepared just prior to treatment by dissolving the test compounds in ethanol (Kemika, Zagreb, Croatia).
Two independent trials, with six experimental groups each, were conducted. A total of six replicate cultures for every single experimental group were established. This step was carried out as follows: aliquots of heparinized blood (V = 600 μL per culture) were pipetted into a growth medium RPMI-1640 (Gibco, Grand Island, NY, USA) supplemented with 10% fetal calf serum (Gibco, Grand Island, NY, USA) and antibiotics (penicillin and streptomycin; Sigma-Aldrich, Steinheim, Germany). Lymphocytes were stimulated with a mitogen phytohemagglutinin (Remel, Lenexa, KS, USA) in order to induce cell division prior to exposure to the test chemicals. Cultures were maintained in the humidified atmosphere of 5% CO2 at 37 °C (Heraeus Hera Cell 240 incubator; Langenselbold, Germany).
Negative controls (NCs) were non-treated lymphocytes. Solvent controls (SCs) were lymphocytes treated with ethanol (its final concentration in the culture corresponded to 0.03%). Positive controls (PCs) were lymphocytes treated for 24 h with bleomycin at 1.25 µg/mL (according to [69]). The other three groups were lymphocytes exposed to single CIT, single CBD, and their combination (CIT + CBD, at the same concentrations).
Treatments with test compounds started 20 h after the initial establishment of the cell cultures and lasted for 24 h. Upon completion of the exposure, aliquots of 100 µL of the treated cultures were pipetted in sterile conditions and used to prepare microgels for the alkaline comet assay. The remaining content of flasks was further processed using Cytokinesis-Block Micronucleus Cytome (CBMN Cyt) Assay.
CBMN Cyt Assay was performed according to standard protocols proposed for micronucleus assay. Upon completion of the exposure, lymphocyte cultures were subjected to centrifugation at 100× g using a benchtop centrifuge (ROTOFIX 32A, Hettich, Tuttlingen, Germany). During this process, cells settled to the bottom of the tube. The growth medium with tested compounds was removed by pipetting, discarded and replaced with a fresh amount of complete growth medium RPMI-1640 that contained Cytochalasin B (cytoB; Sigma-Aldrich, Steinheim, Germany) at a final concentration of 6 µg/mL. This procedure was timed to the 44th hour of lymphocyte cultivation, as that time is a critical point for the addition of cytoB to inhibit cytokinesis and obtain binucleated cells. All treated and control cultures were further maintained in the previously described conditions at 37 °C until the end of the 72nd hour of cultivation, as proposed by protocols. Then, the preparation of microscopic slides started, which included harvesting of cells by centrifugation (100× g, ROTOFIX 32A centrifuge, Hettich, Tuttlingen, Germany), followed by hypotonic treatment (0.075 mol/L KCl; Kemika, Zagreb, Croatia), and a new round of centrifugation. The resulting sediments of cells were fixed in several repeating stages with methanol–acetic acid (3:1 v/v; both obtained from Kemika, Zagreb, Croatia) followed by centrifugation. The final lymphocyte suspension was dropped onto clean microscope slides.

C=C(C)[C@@H]1CCC(C)=C[C@H]1c1c(O)cc(CCCCC)cc1O [CBD, cannabidiol]
IC50 at 24 h [1]: 5000 ± 1000 nM | lowest observed adverse effect level (LOAEL), approximate (HEK293 cells): ~2 µM | cell viability at LOAEL concentrations (HEK293 cells): did not independently impact cell viability | Distribution of BNMN Cells with 1 MN [2]: 17 | Distribution of BNMN Cells with 2 MNi [2]: 0 | Distribution of BNMN Cells with 3 MNi [2]: 0 | Distribution of BNNB Cells with 1 NB [2]: 25 ^a | Distribution of BNNB Cells with 2 NBs [2]: 0 | Micronuclei (MNi) and BNMN Cells: Total (BNNB)6000 [2]: 17 | Micronuclei (MNi) and BNMN Cells: Total (MNi)6000 [2]: 17 | Nuclear Buds (NBs) and BNNB Cells: Total (BNNB)6000 [2]: 25 ^a | Nuclear Buds (NBs) and BNNB Cells: Total (NBs)6000 [2]: 25 ^a | Nucleoplasmic Bridges (NPBs) and BNNPB Cells: Total (BNNPB)6000 [2]: 0 | Nucleoplasmic Bridges (NPBs) and BNNPB Cells: Total (NPBs)6000 [2]: 0 | Cell Death: Total (Apoptosis)6000 [2]: 19 ^a | Cell Death: Total (Necrosis)6000 [2]: 9 | Micronuclei (MNi) and BNMN Cells: Mean (BNMN)1000 ± SD [2]: 2.8 ± 0.8 | Micronuclei (MNi) and BNMN Cells: Mean (MNi)1000 ± SD [2]: 2.8 ± 0.8 | Nuclear Buds (NBs) and BNNB Cells: Mean (BNNB)1000 ± SD [2]: 4.2 ± 0.4 ^a | Nuclear Buds (NBs) and BNNB Cells: Mean (NBs)1000 ± SD [2]: 4.2 ± 0.4 ^a | Nucleoplasmic Bridges (NPBs) and BNNPB Cells: Mean (BNNPB)1000 ± SD [2]: 0 | Nucleoplasmic Bridges (NPBs) and BNNPB Cells: Mean (NPBs)1000 ± SD [2]: 0 | Cell Death: Mean (Apoptosis)1000 ± SD [2]: 3.2 ± 0.8 ^a,b | Cell Death: Mean (Necrosis)1000 ± SD [2]: 1.5 ± 1.0

CC1=C2C(=CO[C@H](C)[C@H]2C)C(O)=C(C(=O)O)C1=O [CIT, citrinin]
IC50 at 24 h [1]: 440 ± 20 nM | IC50 fold lower than that of CBD (HEK293 cells): 11 fold | lowest observed adverse effect level (LOAEL), approximate (HEK293 cells): ~0.05 µM | cell viability at LOAEL concentrations (HEK293 cells): did not independently impact cell viability | Distribution of BNMN Cells with 1 MN [2]: 66 ^a,b,d,e | Distribution of BNMN Cells with 2 MNi [2]: 5 | Distribution of BNMN Cells with 3 MNi [2]: 0 | Distribution of BNNB Cells with 1 NB [2]: 69 ^a,b,d,e | Distribution of BNNB Cells with 2 NBs [2]: 5 | Micronuclei (MNi) and BNMN Cells: Total (BNNB)6000 [2]: 71^a,b,d,e | Micronuclei (MNi) and BNMN Cells: Total (MNi)6000 [2]: 74 ^a,b,d,e | Nuclear Buds (NBs) and BNNB Cells: Total (BNNB)6000 [2]: 74 ^a,b,d,e | Nuclear Buds (NBs) and BNNB Cells: Total (NBs)6000 [2]: 79 ^a,b,d,e | Nucleoplasmic Bridges (NPBs) and BNNPB Cells: Total (BNNPB)6000 [2]: 4 | Nucleoplasmic Bridges (NPBs) and BNNPB Cells: Total (NPBs)6000 [2]: 4 | Cell Death: Total (Apoptosis)6000 [2]: 50 ^a,b,d,e | Cell Death: Total (Necrosis)6000 [2]: 45 ^a,b,d,e | Micronuclei (MNi) and BNMN Cells: Mean (BNMN)1000 ± SD [2]: 11.7 ± 1.4 ^a,b,d,e | Micronuclei (MNi) and BNMN Cells: Mean (MNi)1000 ± SD [2]: 12.3 ± 1.6 ^a,b,d,e | Nuclear Buds (NBs) and BNNB Cells: Mean (BNNB)1000 ± SD [2]: 12.3 ± 3.1 ^a,b,d,e | Nuclear Buds (NBs) and BNNB Cells: Mean (NBs)1000 ± SD [2]: 13.2 ± 3.7 ^a,b,d,e | Nucleoplasmic Bridges (NPBs) and BNNPB Cells: Mean (BNNPB)1000 ± SD [2]: 0.7 ± 0.5 | Nucleoplasmic Bridges (NPBs) and BNNPB Cells: Mean (NPBs)1000 ± SD [2]: 0.7 ± 0.5 | Cell Death: Mean (Apoptosis)1000 ± SD [2]: 8.3 ± 1.6 ^a,b,d,e | Cell Death: Mean (Necrosis)1000 ± SD [2]: 7.5 ± 0.8 ^a,b,d,e
